Structures are written as SMILES.

The target of the assay is GAT1 (Homo sapiens, UniProt P30531). In kind it is cell-based.
Sequence of GAT1 (P30531 whole entry): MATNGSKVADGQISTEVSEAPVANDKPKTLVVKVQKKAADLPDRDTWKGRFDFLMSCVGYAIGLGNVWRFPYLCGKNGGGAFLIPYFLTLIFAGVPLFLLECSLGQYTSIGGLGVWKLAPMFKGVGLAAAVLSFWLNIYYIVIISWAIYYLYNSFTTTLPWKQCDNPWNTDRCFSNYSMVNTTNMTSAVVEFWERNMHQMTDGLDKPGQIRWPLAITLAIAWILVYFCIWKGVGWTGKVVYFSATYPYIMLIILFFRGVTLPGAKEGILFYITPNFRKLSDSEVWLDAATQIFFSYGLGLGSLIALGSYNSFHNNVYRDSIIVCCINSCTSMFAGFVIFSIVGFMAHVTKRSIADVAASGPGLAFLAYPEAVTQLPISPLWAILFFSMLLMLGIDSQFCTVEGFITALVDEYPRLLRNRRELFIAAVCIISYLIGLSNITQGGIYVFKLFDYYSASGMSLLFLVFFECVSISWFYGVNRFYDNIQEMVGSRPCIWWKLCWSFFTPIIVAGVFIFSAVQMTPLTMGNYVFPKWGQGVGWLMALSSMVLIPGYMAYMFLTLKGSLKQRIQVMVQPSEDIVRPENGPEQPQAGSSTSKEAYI

`O=C(O)C1=CCCN(CCON=C(c2ccccc2)c2ccccc2)C1` [NO-711, 1-[2-[[(diphenylmethylene)imino]oxy]ethyl]-1,2,5,6-tetrahydro-3-pyridinecarboxylic acid] displayed a Ki of 78 ± 12 nM.

What is called Ki is a measure of affinity in units of concentration, obtained from inhibition or displacement. Read a low Ki as tighter binding.

Values taken from publication PMC2764797 (Neurochemistry international, 2009).
